# Laboratory results reported in publication PMC8553829, “Improvement of a synthetic live bacterial therapeutic for phenylketonuria with biosensor-enabled enzyme engineering” (Nature Communications, 2021).
# Biological target: T1, StlA (PAL, phenylalanine ammonia lyase) (Photorhabdus laumondii, UniProt Q7N4T3)
# T1 construct: gene plu2234; full-length, untagged; aTc-inducible low-copy plasmid in E. coli Nissle 1917; soluble cell lysate
# T1 sequence (Q7N4T3 1-532): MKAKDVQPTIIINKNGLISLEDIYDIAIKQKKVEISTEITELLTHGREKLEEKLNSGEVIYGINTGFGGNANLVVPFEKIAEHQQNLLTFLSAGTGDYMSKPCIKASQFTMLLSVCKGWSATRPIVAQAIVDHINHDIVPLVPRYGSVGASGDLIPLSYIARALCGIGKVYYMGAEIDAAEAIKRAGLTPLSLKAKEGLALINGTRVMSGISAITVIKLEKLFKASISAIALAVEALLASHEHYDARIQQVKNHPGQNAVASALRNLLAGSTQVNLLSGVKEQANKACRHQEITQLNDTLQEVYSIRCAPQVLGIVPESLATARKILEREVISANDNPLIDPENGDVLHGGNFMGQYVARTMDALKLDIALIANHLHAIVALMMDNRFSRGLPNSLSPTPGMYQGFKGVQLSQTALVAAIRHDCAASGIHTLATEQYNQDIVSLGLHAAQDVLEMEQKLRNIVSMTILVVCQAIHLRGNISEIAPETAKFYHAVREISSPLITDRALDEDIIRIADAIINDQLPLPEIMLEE
# Test: TCA formation followed at A290, nonlinear Michaelis-Menten fit
# Assay type: biochemical
# Conditions: soluble lysate of E. coli Nissle (EP2315), 10 µg total protein per well; M9 0.5% glucose, 37 °C
# Source text: TCA formation followed at A290, nonlinear Michaelis-Menten fit on StlA (PAL, phenylalanine ammonia lyase)
smiles,measurement,value
N[C@@H](Cc1ccccc1)C(=O)O [Phe],KM (mM Phe),1.69 ± 0.37 mM
